Measured values published in patent US20250123269A1 (priority 2023, published 2025).
Counter-ions that a name gives are not always drawn. Peptide text beside a SMILES is read from it. * marks the point of attachment. Decanoyl = CCCCCCCCCC(=O)*; CH2Cl = ClC*

Tests used:
[1] = test system: WT SARS-COV-2 (USA-WA1/2020); assay type: cell-based
SARS-COV-2 = conditions: cited from earlier work
SARS-COV-2 omicron JN.1 = assay: microbe, parasite or virus in culture; assay type: cell-based; conditions: Severe acute respiratory syndrome coronavirus 2, 48 h; for inhibition at 36 µM: read-out: replication inhibition
MERS-COV = assay type: cell-based
229E-CoV = assay: organism not typed; assay type: cell-based; conditions: for IC50: 48 h
[2] = target: main protease of SARS-COV-2 (Severe acute respiratory syndrome coronavirus 2, UniProt P0DTD1); conditions: cited from earlier work
SARS-COV-2 (WA1/2020) = assay type: cell-based

Structure (SMILES): CN(C)C(=O)COC(=O)Cc1ccc(OC(=O)c2ccc(NC(=N)N)cc2)cc1 [camostat mesylate]
- inhibition of SARS-COV-2 infection (dose-response curve) [1]: significantly inhibited
- cell toxicity (ACE2plusC3 cells): without causing cell toxicity
- SARS-COV-2-driven entry and infection (SARS-COV-2): significantly reduces

Structure (SMILES): CCN(CC)CCCC(C)Nc1ccnc2cc(Cl)ccc12 (stereo not drawn) [chloroquine]
- IC50 (SARS-COV-2 omicron JN.1): 12 to 12.1 µM
- inhibition at 36 µM (SARS-COV-2 omicron JN.1): 80 to 95%

Structure (SMILES): O=c1nc(NO)ccn1[C@@H]1O[C@H](CO)[C@@H](O)[C@H]1O [EIDD-1931]
- dose-dependent inhibition of infection [1]: dose-dependent inhibition of infection
- inhibition of SARS-COV-2 infection (dose-response curve) [1]: strong inhibition efficacy
- inhibition of infection [1]: complete inhibition
- reduction of infection [1]: at least 50%

Structure (SMILES): CC(C)(C)[C@H](NC(=O)C(F)(F)F)C(=O)N1C[C@H]2[C@@H]([C@H]1C(=O)N[C@H](C#N)C[C@@H]1CCNC1=O)C2(C)C [nirmatrelvir, Nirmatrelvir]
- dose-dependent inhibition of infection [1]: dose-dependent inhibition of infection
- inhibition of SARS-COV-2 infection (dose-response curve) [1]: strong inhibition efficacy
- inhibition of infection [1]: nearly completely inhibited
- CPE inhibition (MERS-COV): approximately 90%
- IC50 (229E-CoV): 0.818 to 1.03 µM

Structure (SMILES): Cn1cnc(Cn2c(=O)[nH]/c(=N\c3cc4cn(C)nc4cc3Cl)n(Cc3cc(F)c(F)cc3F)c2=O)n1 [ensitrelvir]
- inhibitory effect on infected cells (229E-CoV): no inhibitory effect

Structure (SMILES): Cc1c(O)cccc1C(=O)N[C@@H](CSc1ccccc1)[C@H](O)CN1C[C@H]2CCCC[C@H]2C[C@H]1C(=O)NC(C)(C)C [nelfinavir]
- dose-dependent inhibition of infection [1]: dose-dependent inhibition of infection
- inhibition of SARS-COV-2 infection (dose-response curve) [1]: potent and dose-dependent inhibition of infection
- inhibition of infection [1]: did not completely inhibit infection
- concentration with increased toxicity (ACE2plusC3 cells; human): ≥ 25 µM

Structure (SMILES): CCN(CC)Cc1cc(Nc2ccnc3cc(Cl)ccc23)ccc1O [amodiaquine]
- IC50 (SARS-COV-2 omicron JN.1): 12 to 12.1 µM
- inhibition at 36 µM (SARS-COV-2 omicron JN.1): 80 to 95%

Structure (SMILES): N#C[C@H](C[C@@H]1CCCNC1=O)NC(=O)[C@H](CC1CC1)NC(=O)c1cc2cccc(Cl)c2[nH]1 [pomotrelvir]
- IC50 (229E-CoV): 0.818 to 1.03 µM

Structure (SMILES): CCCCN(CCCC)CCC(O)c1cc2c(Cl)cc(Cl)cc2c2cc(C(F)(F)F)ccc12 (stereo not drawn) [halofantrine]
- IC50 (SARS-COV-2 omicron JN.1): 4 µM
- inhibition at 36 µM (SARS-COV-2 omicron JN.1): 80 to 95%
- binding to main protease [2]: effectively binds

Structure (SMILES): CCCCCCCCCC(=O)N[C@@H](CCCN=C(N)N)C(=O)N[C@H](C(=O)N[C@@H](CCCCN)C(=O)N[C@@H](CCCN=C(N)N)C(=O)CCl)C(C)C [decanoyl-RVKR-CMK] (Decanoyl-RVKR-CH2Cl)
- inhibition of infection by immunofluorescence [1]: moderate inhibition of infection
- inhibition of infection by plaque assay (viral titer) (SARS-COV-2 (WA1/2020)): moderate inhibition of infection
